One experiment has as its system K562 (BCR-ABL+) cells. Kind of experiment: CCK-8 proliferation inhibition, K562 cells.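 Further: Ten-point threefold dilution series starting at 10 µM, absorbance at 450 nm after 2 h with CCK-8, DMSO as negative control.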 Type of experiment: cell-based, human. The conditions noted are these: Homo sapiens, K562, 48 h, CCK-8, 48 hours of drug treatment; read-out: Proliferative inhibitory activity (IC50, nM) K562 (BCR-ABL+).
The test system of the next experiment is U937 (BCR-ABL-) cells. The experiment can be described thus: CCK-8 proliferation inhibition, U937 cells.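 Further: Ten-point threefold dilution series, absorbance at 450 nm after 2 h with CCK-8 reagent, DMSO as negative control.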 Type of experiment: cell-based, human. The conditions noted are these: Homo sapiens, U-937; CCK-8, 48 hours of drug treatment, highest concentration 10 μM; read-out: Proliferative inhibitory activity (IC50, nM) U937 (BCR-ABL-).
The subject of the next experiment is HEK293 (BCR-ABL-) cells. Kind of experiment: CCK-8 proliferation inhibition, HEK293 cells.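 Further: Ten-point threefold dilution series starting at 10 µM, CCK-8 absorbance at 450 nm read after 2 h reagent incubation, DMSO-treated cells as negative control.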 The conditions noted are these: Homo sapiens, HEK293, 48 h, read-out: Proliferative inhibitory activity (IC50, nM) HEK293 (BCR-ABL-).
The target in another experiment is c-ABL protein (Homo sapiens, UniProt P00519). Kind of experiment: Western blot degradation of c-ABL in K562 cells. Set-up: Western blot was used to detect the expression of BCR-ABL and c-ABL protein in K562 cells; endogenous in cells; host or cells: K562. The conditions noted are these: 16 hours, 1 nM-10 μM. It is filed as cell-based. How it is done:
(§1) (1) Cell seed: K562 cells were added to the 24 well plates, with a cell density of 3×10^5/ml and a total volume of 1.5 ml; Five concentration gradients, 1 nm, 10 nm, 100 nm, 1 μM, and 10 μM, were respectively set for PROTAD series compounds and comparative examples compounds (Dasa-6-2-2-6-VHL, Dasa-6-2-6-CRBN). […] After 16 hours of drug treatment, the cells were collected in 1.5 ml ep tube, centrifuged at 3000 rpm for 3 minutes, and then added 30 μL PBS and 30 ul 2×SDS to cell precipitated, lysate Heat at 100° C. for 5 minutes, then place on ice for 5 minutes, centrifuged at 10000 rpm for 5 minutes, and take the supernatant as the total protein extracted. The protein concentration was determined by the Bradford method. After each sample was at the same concentration, bromophenol blue was added as the sample indicator.
(§2) (2) Electrophoresis: the starting voltage of the BioRad electrophoresis instrument was 80V, and as the dye enters the separation gel, the voltage was adjusted to 120V;
(§3) (3) Film transfer: prepare filter paper and nitrocellulose membrane with the corresponding size of the gel, filter paper, and NC film were soaked in transfer electrophoresis buffer.
(§4) DC50 (concentration required to degrade protein by half) were calculated based on the intensity from western blot, and data were analyzed via Prism GraphPad with non-linear regression.
For orientation: In western blotting, separated proteins are transferred to a membrane and probed.

Another experiment has as its target BCR-ABL protein (Homo sapiens, UniProt P00519). Kind of experiment: Western blot degradation of BCR-ABL in K562 cells. It is filed as cell-based. Also noted: Western blot was used to detect the expression of BCR-ABL and c-ABL protein in K562 cells; BCR (fusion partner, P11274); endogenous in cells; host or cells: K562; the other entry of the earlier key: BCR (P11274, Breakpoint cluster region protein). The conditions noted are these: 16 hours, 1 nM-10 μM. How it is done: as §1, §2, §3, §4

Bounds are passed on as bounds.

c-ABL protein, sequence (P00519 whole entry): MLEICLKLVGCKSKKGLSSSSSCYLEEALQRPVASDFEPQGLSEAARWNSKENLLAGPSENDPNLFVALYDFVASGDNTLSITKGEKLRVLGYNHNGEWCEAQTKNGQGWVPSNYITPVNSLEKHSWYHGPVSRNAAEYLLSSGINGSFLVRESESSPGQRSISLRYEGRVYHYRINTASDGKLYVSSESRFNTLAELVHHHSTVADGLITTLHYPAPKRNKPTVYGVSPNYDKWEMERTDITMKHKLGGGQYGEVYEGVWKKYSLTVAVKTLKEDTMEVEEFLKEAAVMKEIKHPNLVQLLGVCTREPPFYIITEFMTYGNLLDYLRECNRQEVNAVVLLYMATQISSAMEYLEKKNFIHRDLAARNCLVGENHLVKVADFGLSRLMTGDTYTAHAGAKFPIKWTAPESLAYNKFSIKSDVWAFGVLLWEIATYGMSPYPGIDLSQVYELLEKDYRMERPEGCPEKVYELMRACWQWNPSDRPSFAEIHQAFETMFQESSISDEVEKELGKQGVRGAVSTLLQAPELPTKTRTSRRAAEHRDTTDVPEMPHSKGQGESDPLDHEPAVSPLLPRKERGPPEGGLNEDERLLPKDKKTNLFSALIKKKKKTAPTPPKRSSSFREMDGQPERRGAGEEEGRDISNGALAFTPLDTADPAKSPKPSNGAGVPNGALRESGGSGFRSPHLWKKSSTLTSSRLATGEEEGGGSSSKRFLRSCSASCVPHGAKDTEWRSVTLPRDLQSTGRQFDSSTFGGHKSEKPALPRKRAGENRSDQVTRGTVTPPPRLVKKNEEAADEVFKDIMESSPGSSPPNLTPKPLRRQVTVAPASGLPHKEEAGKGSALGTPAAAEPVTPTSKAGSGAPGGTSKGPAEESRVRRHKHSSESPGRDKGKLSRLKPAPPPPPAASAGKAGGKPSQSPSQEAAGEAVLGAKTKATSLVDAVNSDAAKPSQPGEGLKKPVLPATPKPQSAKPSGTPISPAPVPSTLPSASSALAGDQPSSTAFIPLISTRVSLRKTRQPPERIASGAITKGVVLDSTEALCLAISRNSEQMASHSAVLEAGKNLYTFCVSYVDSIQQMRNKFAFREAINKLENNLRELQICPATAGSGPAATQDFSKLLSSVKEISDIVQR
BCR-ABL protein, sequence (P00519 with tags, fused parts or gaps): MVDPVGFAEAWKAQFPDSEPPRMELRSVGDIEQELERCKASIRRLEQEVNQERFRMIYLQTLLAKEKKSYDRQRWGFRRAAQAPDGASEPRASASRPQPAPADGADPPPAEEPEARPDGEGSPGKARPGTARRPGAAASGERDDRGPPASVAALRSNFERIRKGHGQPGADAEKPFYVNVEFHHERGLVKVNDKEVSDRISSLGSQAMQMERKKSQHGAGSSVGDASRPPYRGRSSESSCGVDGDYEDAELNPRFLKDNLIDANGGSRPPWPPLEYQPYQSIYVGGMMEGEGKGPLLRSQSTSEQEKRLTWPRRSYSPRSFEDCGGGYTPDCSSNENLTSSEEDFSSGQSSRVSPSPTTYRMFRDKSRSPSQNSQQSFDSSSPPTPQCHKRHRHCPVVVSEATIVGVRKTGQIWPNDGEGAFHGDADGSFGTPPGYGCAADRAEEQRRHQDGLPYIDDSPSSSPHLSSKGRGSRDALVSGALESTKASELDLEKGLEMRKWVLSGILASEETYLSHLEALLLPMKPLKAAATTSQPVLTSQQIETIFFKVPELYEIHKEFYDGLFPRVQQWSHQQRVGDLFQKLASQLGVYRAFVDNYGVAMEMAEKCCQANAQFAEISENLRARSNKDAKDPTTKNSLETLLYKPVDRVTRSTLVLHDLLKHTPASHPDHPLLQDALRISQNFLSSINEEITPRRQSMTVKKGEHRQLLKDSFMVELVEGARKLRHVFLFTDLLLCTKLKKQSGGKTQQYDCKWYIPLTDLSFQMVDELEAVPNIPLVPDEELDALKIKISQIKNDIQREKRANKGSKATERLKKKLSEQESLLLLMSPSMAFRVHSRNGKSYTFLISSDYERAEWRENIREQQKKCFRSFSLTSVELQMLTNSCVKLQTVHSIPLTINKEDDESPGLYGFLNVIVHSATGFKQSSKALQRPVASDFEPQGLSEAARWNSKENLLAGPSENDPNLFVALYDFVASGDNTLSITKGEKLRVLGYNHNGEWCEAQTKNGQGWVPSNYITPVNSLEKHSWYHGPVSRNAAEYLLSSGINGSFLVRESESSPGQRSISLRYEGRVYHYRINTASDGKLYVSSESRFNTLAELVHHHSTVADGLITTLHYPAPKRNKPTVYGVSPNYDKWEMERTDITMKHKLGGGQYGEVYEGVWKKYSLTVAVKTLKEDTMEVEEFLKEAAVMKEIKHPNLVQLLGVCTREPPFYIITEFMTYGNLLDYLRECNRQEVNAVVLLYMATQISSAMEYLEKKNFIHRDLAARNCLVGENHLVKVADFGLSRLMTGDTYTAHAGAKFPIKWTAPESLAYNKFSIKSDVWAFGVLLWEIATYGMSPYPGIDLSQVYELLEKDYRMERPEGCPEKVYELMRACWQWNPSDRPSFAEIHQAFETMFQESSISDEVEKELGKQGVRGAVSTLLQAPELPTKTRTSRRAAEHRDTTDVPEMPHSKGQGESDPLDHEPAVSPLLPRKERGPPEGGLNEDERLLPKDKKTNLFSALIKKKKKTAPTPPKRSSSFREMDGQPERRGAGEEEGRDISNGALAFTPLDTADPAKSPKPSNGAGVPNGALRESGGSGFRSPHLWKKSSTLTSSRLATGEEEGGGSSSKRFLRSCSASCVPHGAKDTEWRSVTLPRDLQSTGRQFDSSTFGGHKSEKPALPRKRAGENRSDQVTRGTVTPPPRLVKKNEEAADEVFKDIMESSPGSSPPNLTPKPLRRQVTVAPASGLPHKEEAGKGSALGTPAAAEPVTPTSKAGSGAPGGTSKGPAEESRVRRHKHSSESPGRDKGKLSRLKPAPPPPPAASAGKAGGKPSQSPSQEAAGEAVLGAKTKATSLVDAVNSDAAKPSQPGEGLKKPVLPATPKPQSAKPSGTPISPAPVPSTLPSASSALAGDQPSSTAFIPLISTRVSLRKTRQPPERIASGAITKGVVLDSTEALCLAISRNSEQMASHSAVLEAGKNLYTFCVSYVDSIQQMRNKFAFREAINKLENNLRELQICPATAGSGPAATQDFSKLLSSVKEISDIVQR

The IC50 is the concentration that gives 50% inhibition. Usually DC50 stands for the concentration giving 50% degradation. Consider `Cc1nc(Nc2ncc(C(=O)Nc3c(C)cccc3Cl)s2)cc(N2CCN(C(=O)CCCCC(=O)N[C@H](C(=O)N3C[C@H](O)C[C@H]3C(=O)NCc3ccc(-c4scnc4C)cc3)C(C)(C)C)CC2)n1` [SIAIS151176, N-(2-chloro-6-methylphenyl)-2-((6-(4-(6-(((S)-1-((2S,4R)-4-hydroxy-2-((4-(4-methylthiazol-5-yl)benzyl)carbamoyl)pyrrolidin-1-yl)-3,3-dimethyl-1-oxobutan-2-yl)amino)-6-oxohexanoyl)piperazin-1-yl)-2-methylpyrimidin-4-yl)amino)thiazole-5-carboxamide], for which the IC50 with K562 (BCR-ABL+) cells was 89 nM; in the experiment with U937 (BCR-ABL-) cells it was over 10000 nM; in the experiment on HEK293 (BCR-ABL-) cells, over 10000 nM. In addition, the values for the DC50 at c-ABL protein and on BCR-ABL protein were 100 to 1000 nM and 10 to 100 nM, respectively.
`Cc1nc(Nc2ncc(C(=O)Nc3c(C)cccc3Cl)s2)cc(N2CCN(C(=O)CCCCCOCCOCCOCCCCCC(=O)Nc3cccc4c3C(=O)N(C3CCC(=O)NC3=O)C4=O)CC2)n1` (stereo not shown) [SIAIS171114, N-(2-chloro-6-methylphenyl)-2-((6-(4-(6-(2-(2-((6-((2-(2,6-dioxopiperidin-3-yl)-1,3-dioxoisoindolin-4-yl)amino)-6-oxohexyl)oxy)ethoxy)ethoxy)hexanoyl)piperazin-1-yl)-2-methylpyrimidin-4-yl)amino)thiazole-5-carboxamide]: the IC50 is 2.57 nM in the experiment with K562 (BCR-ABL+) cells, over 10000 nM in the experiment on U937 (BCR-ABL-) cells and over 10000 nM in the experiment with HEK293 (BCR-ABL-) cells. The 50% degradation concentration (DC50) on c-ABL protein and at BCR-ABL protein was 10 to 100 nM throughout.
On to `Cc1nc(Nc2ncc(C(=O)Nc3c(C)cccc3Cl)s2)cc(N2CCN(C(=O)CCCCCC(=O)N[C@H](C(=O)N3C[C@H](O)C[C@H]3C(=O)NCc3ccc(-c4scnc4C)cc3)C(C)(C)C)CC2)n1` [SIAIS151177, N-(2-chloro-6-methylphenyl)-2-((6-(4-(7-(((S)-1-((2S,4R)-4-hydroxy-2-((4-(4-methylthiazol-5-yl)benzyl)carbamoyl)pyrrolidin-1-yl)-3,3-dimethyl-1-oxobutan-2-yl)amino)-7-oxoheptanoyl)piperazin-1-yl)-2-methylpyrimidin-4-yl)amino)thiazole-5-carboxamide], for which the IC50 is 37.6 nM in the experiment on K562 (BCR-ABL+) cells, over 10000 nM with U937 (BCR-ABL-) cells and over 10000 nM in the experiment on HEK293 (BCR-ABL-) cells. For the same compound, the 50% degradation concentration (DC50) lay in the range of 10 to 100 nM at c-ABL protein and 1 to 10 nM at BCR-ABL protein.
As for `Cc1nc(Nc2ncc(C(=O)Nc3c(C)cccc3Cl)s2)cc(N2CCN(C(=O)CNc3cccc4c3C(=O)N(C3CCC(=O)NC3=O)C4=O)CC2)n1` (stereo not shown) [SIAIS151072, N-(2-chloro-6-methylphenyl)-2-((6-(4-((2-(2,6-dioxopiperidin-3-yl)-1,3-dioxoisoindolin-4-yl)glycyl)piperazin-1-yl)-2-methylpyrimidin-4-yl)amino)thiazole-5-carboxamide], the values for the concentration for half-maximal inhibition (IC50) in the experiment on K562 (BCR-ABL+) cells, in the experiment on U937 (BCR-ABL-) cells and with HEK293 (BCR-ABL-) cells were 1.22 nM, over 10000 nM and over 10000 nM, respectively. Further, the DC50 on c-ABL protein was 1 to 10 nM; at BCR-ABL protein, under 1 nM.
As for `Cc1nc(Nc2ncc(C(=O)Nc3c(C)cccc3Cl)s2)cc(N2CCN(C(=O)CCOCCNc3cccc4c3C(=O)N(C3CCC(=O)NC3=O)C4=O)CC2)n1` (stereo not shown) [SIAIS151063, N-(2-chloro-6-methylphenyl)-2-((6-(4-(3-(2-((2-(2,6-dioxopiperidin-3-yl)-1,3-dioxoisoindolin-4-yl)amino)ethoxy)propanoyl)piperazin-1-yl)-2-methylpyrimidin-4-yl)amino)thiazole-5-carboxamide], the 50% inhibitory concentration (IC50) in the experiment on K562 (BCR-ABL+) cells turned out to be 2.7 nM; in the experiment on U937 (BCR-ABL-) cells it was 276 nM; in the experiment on HEK293 (BCR-ABL-) cells, 972 nM. The DC50 at c-ABL protein and on BCR-ABL protein was 1 to 10 nM in each case.
Consider `Cc1nc(Nc2ncc(C(=O)Nc3c(C)cccc3Cl)s2)cc(N2CCN(C(=O)CCCCCNc3cccc4c3C(=O)N(C3CCC(=O)NC3=O)C4=O)CC2)n1` (stereo not shown) [SIAIS151075, N-(2-chloro-6-methylphenyl)-2-((6-(4-(6-((2-(2,6-dioxopiperidin-3-yl)-1,3-dioxoisoindolin-4-yl)amino)hexanoyl)piperazin-1-yl)-2-methylpyrimidin-4-yl)amino)thiazole-5-carboxamide], for which the concentration for half-maximal inhibition (IC50) is 0.03 nM with K562 (BCR-ABL+) cells, over 10000 nM in the experiment with U937 (BCR-ABL-) cells and over 10000 nM with HEK293 (BCR-ABL-) cells. The DC50 on c-ABL protein and at BCR-ABL protein was 1 to 10 nM in each case.
With `Cc1nc(Nc2ncc(C(=O)Nc3c(C)cccc3Cl)s2)cc(N2CCN(C(=O)COc3cccc4c3C(=O)N(C3CCC(=O)NC3=O)C4=O)CC2)n1` (stereo not shown) [SIAIS184128, N-(2-chloro-6-methylphenyl)-2-((6-(4-(2-((2-(2,6-dioxopiperidin-3-yl)-1,3-dioxoisoindolin-4-yl)oxy)acetyl)piperazin-1-yl)-2-methylpyrimidin-4-yl)amino)thiazole-5-carboxamide], the half-inhibitory concentration (IC50) in the experiment with K562 (BCR-ABL+) cells is 7 nM; with U937 (BCR-ABL-) cells, over 10000 nM; in the experiment with HEK293 (BCR-ABL-) cells, over 10000 nM. The half-maximal degradation concentration (DC50) at c-ABL protein and at BCR-ABL protein was 1 to 10 nM each time.
Turning to `COc1cc(Nc2c(C#N)cnc3cc(OCCCN4CCN(C(=O)CCC(=O)NCCNc5cccc6c5C(=O)N(C5CCC(=O)NC5=O)C6=O)CC4)c(OC)cc23)c(Cl)cc1Cl` (stereo not shown) [SIAIS164136, 4-(4-(3-((3-cyano-4-((2,4-dichloro-5-methoxyphenyl)amino)-6-methoxyquinolin-7-yl)oxy)propyl)piperazin-1-yl)-N-(2-((2-(2,6-dioxopiperidin-3-yl)-1,3-dioxoisoindolin-4-yl)amino)ethyl)-4-oxobutanamide], the IC50 is 77.6 nM in the experiment with K562 (BCR-ABL+) cells, over 10000 nM in the experiment with U937 (BCR-ABL-) cells and over 10000 nM in the experiment with HEK293 (BCR-ABL-) cells. Besides, the DC50 on c-ABL protein and on BCR-ABL protein was 1 to 10 nM throughout.
Regarding `Cc1nc(Nc2ncc(C(=O)Nc3c(C)cccc3Cl)s2)cc(N2CCN(C(=O)CCC(=O)N[C@H](C(=O)N3C[C@H](O)C[C@H]3C(=O)NCc3ccc(-c4scnc4C)cc3)C(C)(C)C)CC2)n1` [SIAIS151174, N-(2-chloro-6-methylphenyl)-2-((6-(4-(4-(((S)-1-((2S,4R)-4-hydroxy-2-((4-(4-methylthiazol-5-yl)benzyl)carbamoyl)pyrrolidin-1-yl)-3,3-dimethyl-1-oxobutan-2-yl)amino)-4-oxobutanoyl)piperazin-1-yl)-2-methylpyrimidin-4-yl)amino)thiazole-5-carboxamide], the IC50 with K562 (BCR-ABL+) cells is 78 nM; in the experiment with U937 (BCR-ABL-) cells, over 10000 nM; with HEK293 (BCR-ABL-) cells it was over 10000 nM. Moreover, the 50% degradation concentration (DC50) at c-ABL protein and on BCR-ABL protein was 100 to 1000 nM in each case.
For the compound `Cc1nc(Nc2ncc(C(=O)Nc3c(C)cccc3Cl)s2)cc(N2CCN(C(=O)CCCC(=O)Nc3cccc4c3CN(C3CCC(=O)NC3=O)C4=O)CC2)n1` (stereo not shown) [SIAIS164110, N-(2-chloro-6-methylphenyl)-2-((6-(4-(5-((2-(2,6-dioxopiperidin-3-yl)-1-oxoisoindolin-4-yl)amino)-5-oxopentanoyl)piperazin-1-yl)-2-methylpyrimidin-4-yl)amino)thiazole-5-carboxamide], the IC50 with K562 (BCR-ABL+) cells was 1.03 nM; in the experiment on U937 (BCR-ABL-) cells, over 10000 nM; in the experiment on HEK293 (BCR-ABL-) cells it was over 10000 nM. The DC50 at c-ABL protein and on BCR-ABL protein was 10 to 100 nM throughout.
As for `COc1cc(Nc2c(C#N)cnc3cc(OCCCN4CCN(C(=O)CCCCCCNc5cccc6c5C(=O)N(C5CCC(=O)NC5=O)C6=O)CC4)c(OC)cc23)c(Cl)cc1Cl` (stereo not shown) [SIAIS151167, 4-((2,4-dichloro-5-methoxyphenyl)amino)-7-(3-(4-(7-((2-(2,6-dioxopiperidin-3-yl)-1,3-dioxoisoindolin-4-yl)amino)heptanoyl)piperazin-1-yl)propoxy)-6-methoxyquinoline-3-carbonitrile], the IC50 with K562 (BCR-ABL+) cells was 3650 nM; with U937 (BCR-ABL-) cells it was over 10000 nM; in the experiment with HEK293 (BCR-ABL-) cells, over 10000 nM. The DC50 on c-ABL protein and on BCR-ABL protein was 10 to 100 nM in each case.

These data come from patent publication US11639343B2, “Compounds targeting and degrading BCR-ABL protein and its antitumor application” (ShanghaiTech University, priority 2019, dated 2023).
